In patent US20230114674A1, “ISOINDOLINE DERIVATIVE, AND PHARMACEUTICAL COMPOSITION AND USE THEREOF” (KANGPU BIOPHARMACEUTICALS, LTD., priority 2020, published 2023) one finds IC50 data, which are given here for 36 molecules.

The structures appear in SMILES notation.

What is called IC50 is the concentration that gives 50% inhibition.

In this assay the test system is MM.1S myeloma cells. The assay can be described thus: Cell proliferation inhibition test by MTS assay. The format is cell-based. Conditions: Homo sapiens, MM1.S, 72 hours drug treatment, 15,000 cells/well, 96-well plate. The procedure: Experimental Method for Cell Proliferation Inhibition Test by MTS Assay:
Proliferating MM.1S myeloma cells (ATCC, Cat #CRL-2974) were resuspended in RPMI-640 medium (Gibco, Cat #A10491-01) and counted using an automated cell counter. The cell suspension was diluted to the needed density and 100 μl (15,000 cells) of the cell suspension was plated per well in a 96-well plate. The plate was cultured in a 37° C., 5% CO2 incubator for 24 hours. On the day of administration, each compound was formulated into 20 mM stock solution with DMSO (Sigma, Cat #D2650), diluted with a medium to the needed concentration, and then added to the corresponding wells for the cell proliferation inhibition test with a drug of 4-fold serial dilution with 10 points. The final concentration of DMSO was 0.5%. After drug addition, the 96-well plate was cultured in a 37° C., 5% CO2 incubator for 72 hours. Then, 20 μl of MTS (Promega, Cat #G3581) was added to each well and the plate was cultured for 2 hours in a 37° C., 5% CO2 incubator, and then the absorbance at 490 nm of each well was recorded using an Ensight instrument. The reading of the cells at Day 0 was used as a negative control and the reading of cells with 0.5% DMSO at Day-3 was used as a positive control. Cell proliferation inhibition curve was plotted using GraphPad Prism 5 software and the IC50 value was calculated. Experiment results can be seen in Table 1.
For orientation: Formazan colour is commonly taken as a measure of viable cells.

In turn, `N#Cc1ccc(N2CCN(Cc3ccc(COc4cccc5c4CN([C@H]4CCC(=O)NC4=O)C5=O)c(Cl)c3)CC2)c(F)c1` [CM-1] yielded an IC50 of 0.102 nM.
`O=C1CC[C@H](N2Cc3c(OCc4ccc(CN5CCN(c6ccc([N+](=O)[O-])cc6F)CC5)cc4F)cccc3C2=O)C(=O)N1` [CM-2, (S)-3-(4-((2-fluoro-4-((4-(2-fluoro-4-nitrophenyl)piperazin-1-yl)methyl)benzyl)oxy)-1-oxoisoindolin-2-yl)piperidine-2,6-dione]: the IC50 amounted to 0.0139 nM.
The molecule `N#Cc1ccc(N2CCN(Cc3ccc(COc4cccc5c4CN([C@H]4CCC(=O)NC4=O)C5=O)c(F)c3)CC2)c(F)c1` [CM-3, (S)-4-(4-(4-(((2-(2,6-dioxopiperidin-3-yl)-1-oxoisoindolin-4-yl)oxy)methyl)-3-fluorobenzyl)piperazin-1-yl)-3-fluorobenzonitrile] displayed an IC50 of 0.0064 nM.
Then `N#Cc1ccc(N2CCN(Cc3ccc(COc4cccc5c4CN([C@H]4CCC(=O)NC4=O)C5=O)cc3F)CC2)c(F)c1` [CM-4, (S)-4-(4-(4-(((2-(2,6-dioxopiperidin-3-yl)-1-oxoisoindolin-4-yl)oxy)methyl)-2-fluorobenzyl)piperazin-1-yl)-3-fluorobenzonitrile], with 0.0153 nM.
In turn, `N#Cc1ccc(N2CCN(Cc3ccc(COc4cccc5c4CN([C@H]4CCC(=O)NC4=O)C5=O)c(F)c3)CC2)cc1F` [CM-5, (S)-4-(4-(4-(((2-(2,6-dioxopiperidin-3-yl)-1-oxoisoindolin-4-yl)oxy)methyl)-3-fluorobenzyl)piperazin-1-yl)-2-fluorobenzonitrile] gave an IC50 of 0.0063 nM.
Then `N#Cc1ccc(N2CCN(Cc3ccc(COc4cccc5c4CN([C@H]4CCC(=O)NC4=O)C5=O)c(F)c3)CC2)cc1C(F)(F)F` [CM-6, (S)-4-(4-(4-(((2-(2,6-dioxopiperidin-3-yl)-1-oxoisoindolin-4-yl)oxy)methyl)-3-fluorobenzyl)piperazin-1-yl)-2-(trifluoromethyl)benzonitrile], with 0.0409 nM; and `COc1cc(N2CCN(Cc3ccc(COc4cccc5c4CN([C@H]4CCC(=O)NC4=O)C5=O)c(F)c3)CC2)ccc1C#N` [CM-7, (S)-4-(4-(4-(((2-(2,6-dioxopiperidin-3-yl)-1-oxoisoindolin-4-yl)oxy)methyl)-3-fluorobenzyl)piperazin-1-yl)-2-methoxybenzonitrile], with 0.0054 nM.
For `N#Cc1ccc(N2CCN(Cc3ccc(COc4cccc5c4CN([C@H]4CCC(=O)NC4=O)C5=O)c(F)c3)CC2)c(C(F)(F)F)c1` [CM-8] the value was 0.0211 nM; for `N#Cc1ccc(N2CCN(Cc3ccc(COc4cccc5c4CN([C@H]4CCC(=O)NC4=O)C5=O)c(F)c3)CC2)c(Cl)c1` [CM-9], 0.0136 nM; for `N#Cc1ccc(N2CCN(Cc3ccc(COc4cccc5c4CN([C@H]4CCC(=O)NC4=O)C5=O)c(F)c3)CC2)cc1` [CM-10], 0.0105 nM.
In turn, `Cc1cc(N2CCN(Cc3ccc(COc4cccc5c4CN([C@H]4CCC(=O)NC4=O)C5=O)c(F)c3)CC2)ccc1C#N` [CM-11] came in with an IC50 of 0.0091 nM.
`CCOc1cc(N2CCN(Cc3ccc(COc4cccc5c4CN([C@H]4CCC(=O)NC4=O)C5=O)c(F)c3)CC2)ccc1C#N` [CM-12] yielded an IC50 of 0.0067 nM.
Then `N#Cc1ccc(N2CCN(Cc3ccc(COc4cccc5c4CN([C@H]4CCC(=O)NC4=O)C5=O)c(F)c3)CC2)cc1OCC1CC1` [CM-13], with 0.0271 nM; and `[2H]C([2H])([2H])Oc1cc(N2CCN(Cc3ccc(COc4cccc5c4CN([C@H]4CCC(=O)NC4=O)C5=O)c(F)c3)CC2)ccc1C#N` [CM-15], with 0.0062 nM.
As for `O=C1CC[C@H](N2Cc3c(OCc4ccc(CN5CCN(c6ccc(C(F)(F)F)c(F)c6)CC5)cc4F)cccc3C2=O)C(=O)N1` [CM-16], the IC50 was determined as 0.189 nM.
Then `NC(=O)c1ccc(N2CCN(Cc3ccc(COc4cccc5c4CN([C@H]4CCC(=O)NC4=O)C5=O)c(F)c3)CC2)cc1F` [CM-18, (S)-4-(4-(4-(((2-(2,6-dioxopiperidin-3-yl)-1-oxoisoindolin-4-yl)oxy)methyl)-3-fluorobenzyl)piperazin-1-yl)-2-fluorobenzamide], with 0.0188 nM; and `N#Cc1ccc(N2CCN(Cc3ccc(COc4cccc5c4CN([C@H]4CCC(=O)NC4=O)C5=O)cc3F)CC2)cc1F` [CM-20], with 0.0132 nM.
`COc1cc(N2CCN(Cc3ccc(COc4cccc5c4CN([C@H]4CCC(=O)NC4=O)C5=O)cc3F)CC2)ccc1C#N` [CM-21] registered an IC50 of 0.0111 nM.
For `NC(=O)c1ccc(N2CCN(Cc3ccc(COc4cccc5c4CN([C@H]4CCC(=O)NC4=O)C5=O)cc3F)CC2)c(F)c1` [CM-23] the value was 0.0581 nM; for `NC(=O)c1ccc(N2CCN(Cc3ccc(COc4cccc5c4CN([C@H]4CCC(=O)NC4=O)C5=O)c(F)c3)CC2)c(F)c1` [CM-24], 0.0388 nM; for `N#Cc1ncc(N2CCN(Cc3ccc(COc4cccc5c4CN([C@H]4CCC(=O)NC4=O)C5=O)cc3F)CC2)cc1C(F)(F)F` [CM-25], 0.0291 nM.
For `CCOc1nc(N2CCN(Cc3ccc(COc4cccc5c4CN([C@H]4CCC(=O)NC4=O)C5=O)cc3F)CC2)ccc1OC` [CM-26] the value was 0.465 nM; for `COc1cc(C#N)ccc1N1CCN(Cc2ccc(COc3cccc4c3CN([C@H]3CCC(=O)NC3=O)C4=O)c(F)c2)CC1` [CM-27], 0.134 nM; for `N#Cc1ccc(N2CCN(Cc3ccc(COc4cccc5c4CN([C@H]4CCC(=O)NC4=O)C5=O)c(F)c3)CC2)cn1` [CM-28], 0.102 nM.
Then `N#Cc1ccc(N2CCN(Cc3ccc(COc4cccc5c4CN(C4CCC(=O)NC4=O)C5=O)c(F)c3)CC2)nc1` (stereo not drawn) [CM-29], with 0.201 nM; and `N#Cc1ccc(N2CCN(Cc3ccc(COc4cccc5c4CN([C@H]4CCC(=O)NC4=O)C5=O)c(F)c3)CC2)c(C#N)c1` [CM-30], with 0.109 nM; and `N#Cc1ccc(N2CCN(Cc3ccc(COc4cccc5c4CN([C@H]4CCC(=O)NC4=O)C5=O)c(F)c3)CC2)c(C(N)=O)c1` [CM-33], with 0.0781 nM.
`CNC(=O)c1cc(C#N)ccc1N1CCN(Cc2ccc(COc3cccc4c3CN([C@H]3CCC(=O)NC3=O)C4=O)c(F)c2)CC1` [CM-34] yielded an IC50 of 0.0766 nM.
For `CCc1cc(C#N)ccc1N1CCN(Cc2ccc(COc3cccc4c3CN([C@H]3CCC(=O)NC3=O)C4=O)c(F)c2)CC1` [CM-35] the value was 0.0962 nM; for `CCOc1cc(C#N)ccc1N1CCN(Cc2ccc(COc3cccc4c3CN([C@H]3CCC(=O)NC3=O)C4=O)c(F)c2)CC1` [CM-36], 0.148 nM.
Take `N#Cc1ccc(N2CCN(Cc3ccc(COc4cccc5c4CN([C@H]4CCC(=O)NC4=O)C5=O)c(F)c3)CC2)cc1C1CC1` [CM-37]: the IC50 was 0.119 nM.
For `C=Cc1ccc(N2CCN(Cc3ccc(COc4cccc5c4CN([C@H]4CCC(=O)NC4=O)C5=O)c(F)c3)CC2)c(F)c1` [CM-38] the value was 1.21 nM; for `N#Cc1ccc(N2CCN(Cc3ccc(COc4cccc5c4CN([C@H]4CCC(=O)NC4=O)C5=O)c(F)c3)CC2)cc1Cl` [CM-39], 0.0631 nM.
In the case of `N#Cc1ccc(N2CCN(Cc3ccc(COc4cccc5c4CN([C@H]4CCC(=O)NC4=O)C5=O)c(F)c3)CC2)c(O)c1` [CM-40], inhibition was half-maximal at 0.378 nM (IC50).
Molecule `CCc1cc(N2CCN(Cc3ccc(COc4cccc5c4CN([C@H]4CCC(=O)NC4=O)C5=O)c(F)c3)CC2)ccc1C#N` [CM-41] returned an IC50 of 0.116 nM.
For the molecule `C#Cc1ccc(N2CCN(Cc3ccc(COc4cccc5c4CN([C@H]4CCC(=O)NC4=O)C5=O)c(F)c3)CC2)c(F)c1` [CM-43], the midpoint of inhibition, the IC50, lay at 0.576 nM.
